Experimental data taken from article PMC10359453, “Mutational and structural analyses of UdgX: insights into the active site pocket architecture and its evolution” (Nucleic Acids Research, 2023).

Columns and labels:
Test in all cases: X-ray crystal structure of complex
Format in all cases: binding
[1] = biological target: T1, MsmUdgX (Mycolicibacterium smegmatis, UniProt A0QP43, H109K); conditions: uracil excised from 5-mer ssDNA TTUTT, DNA backbone not modelled; active site; pH 7.0
T1 construct: gene MSMEG_0265; N-terminal 6xHis tag (pET14b), expressed in E. coli Rosetta (DE3), Ni-NTA and Superdex-75 purified; 4Fe-4S protein
T1 sequence (A0QP43 entry or part of it H109K): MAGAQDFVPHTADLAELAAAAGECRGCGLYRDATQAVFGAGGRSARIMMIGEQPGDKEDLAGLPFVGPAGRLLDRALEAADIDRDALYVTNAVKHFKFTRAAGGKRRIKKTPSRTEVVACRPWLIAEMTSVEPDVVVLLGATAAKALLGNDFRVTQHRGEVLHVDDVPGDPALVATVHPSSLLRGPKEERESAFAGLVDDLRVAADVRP

[2] = biological target: T2, MsmUdgX (Mycolicibacterium smegmatis, UniProt A0QP43); conditions: uracil excised from 5-mer ssDNA TTUTT; active site; pH 7.0
T2 construct: gene MSMEG_0265; N-terminal 6xHis tag (pET14b), expressed in E. coli Rosetta (DE3), Ni-NTA and Superdex-75 purified; 4Fe-4S protein
T2 sequence (A0QP43 1-209): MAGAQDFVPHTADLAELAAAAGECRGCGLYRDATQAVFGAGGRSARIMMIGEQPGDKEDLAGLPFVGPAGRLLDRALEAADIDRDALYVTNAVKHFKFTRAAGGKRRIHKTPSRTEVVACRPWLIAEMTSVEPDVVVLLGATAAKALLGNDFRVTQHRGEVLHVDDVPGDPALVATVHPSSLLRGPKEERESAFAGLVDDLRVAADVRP

[3] = biological target: T3, MsmUdgX (Mycolicibacterium smegmatis, UniProt A0QP43, H109C); conditions: uracil excised from 5-mer ssDNA TTUTT, DNA backbone not modelled; active site; pH 7.0
T3 construct: gene MSMEG_0265; N-terminal 6xHis tag (pET14b), expressed in E. coli Rosetta (DE3), Ni-NTA and Superdex-75 purified; 4Fe-4S protein
T3 sequence (A0QP43 entry or part of it H109C): as the sequence (A0QP43 entry or part of it H109K) above, with K109C counted along it

[4] = biological target: T4, MsmUdgX (Mycolicibacterium smegmatis, UniProt A0QP43, H109S/R184A); conditions: uracil excised from 5-mer ssDNA TTUTT, DNA backbone not modelled; active site; pH 7.0
T4 construct: gene MSMEG_0265; N-terminal 6xHis tag (pET14b), expressed in E. coli Rosetta (DE3), Ni-NTA and Superdex-75 purified; 4Fe-4S protein
T4 sequence (A0QP43 entry or part of it H109S/R184A): as the sequence (A0QP43 entry or part of it H109K) above, with K109S, R184A counted along it

[5] = biological target: T5, MsmUdgX (Mycolicibacterium smegmatis, UniProt A0QP43, H109Q); conditions: uracil excised from 5-mer ssDNA TTUTT, DNA backbone not modelled; active site; pH 7.0
T5 construct: gene MSMEG_0265; N-terminal 6xHis tag (pET14b), expressed in E. coli Rosetta (DE3), Ni-NTA and Superdex-75 purified; 4Fe-4S protein
T5 sequence (A0QP43 entry or part of it H109Q): as the sequence (A0QP43 entry or part of it H109K) above, with K109Q counted along it

[6] = biological target: T6, MsmUdgX (Mycolicibacterium smegmatis, UniProt A0QP43, H109G); conditions: uracil excised from 5-mer ssDNA TTUTT, DNA backbone not modelled; active site; pH 7.0
T6 construct: gene MSMEG_0265; N-terminal 6xHis tag (pET14b), expressed in E. coli Rosetta (DE3), Ni-NTA and Superdex-75 purified; 4Fe-4S protein
T6 sequence (A0QP43 entry or part of it H109G): as the sequence (A0QP43 entry or part of it H109K) above, with K109G counted along it

[7] = biological target: T7, MsmUdgX (Mycolicibacterium smegmatis, UniProt A0QP43, H109A); conditions: uracil excised from 5-mer ssDNA TTUTT, DNA backbone not modelled; active site; pH 7.0
T7 construct: gene MSMEG_0265; N-terminal 6xHis tag (pET14b), expressed in E. coli Rosetta (DE3), Ni-NTA and Superdex-75 purified; 4Fe-4S protein
T7 sequence (A0QP43 entry or part of it H109A): as the sequence (A0QP43 entry or part of it H109K) above, with K109A counted along it

X-ray crystal structure of complex [3]: H109C (magenta, PDB ID: 8III)
X-ray crystal structure of complex [4]: H109S/R184A (orange, PDB ID: 8IIT)
X-ray crystal structure of complex [5]: H109Q (green, PDB ID: 8IIP)
X-ray crystal structure of complex [6]: H109G (cyan, PDB ID: 8IIL)
Structure (SMILES): O=c1cc[nH]c(=O)[nH]1 [uracil]
X-ray crystal structure of complex [1]: Crystal structures of H109K (yellow, (PDB ID: 8IIN)
X-ray crystal structure of complex [2]: Uracil bound in the active site of MsmUdgX, post its cleavage from the DNA backbone
X-ray crystal structure of complex [7]: H109A (brown, PDB ID: 8IIG), mutants with uracil in the active sites cavity
